Experimental data published in US20240075002A1, “CREATINE COMPOSITION AND METHODS OF USING SAME” (NanoChem Solutions, Inc, priority 2022, published 2024).

Test: pH of the spray dried powder
Format: physicochemical
Method: In one exemplary embodiment, an aqueous solution of creatine sodium sulfate can be produced by dissolving about 72.96 grams of sodium hydrogen sulfate in about 811.86 grams of deionized water. The solution can be heated to about 145° F. and is maintained throughout the reaction. When the temperature of the sodium hydrogen sulfate solution reaches about 145° F., about 90.63 grams of creatine monohydrate can be added to the solution whereby the heat is maintained at about 145° F. and the mixture mixes with standard agitation for approximately 1 hour. After the hour, the solution is immediately piped to the spray dryer whereby it is spray dried into a powder with a total water of 3-7% by weight and with a water activity of less than 0.4. The pH of the spray dried powder is approximately 1.7. The mesh size of the spray-dried, stable, soluble sodium hydrogen sulfate powder is approximately 40-200 mesh, but can be adjusted depending on the requirements of the customer or desired end application.
In another exemplary embodiment, an aqueous solution of creatine potassium sulfate can be produced by dissolving about 109.53 grams of potassium hydrogen sulfate in about 806.68 grams of deionized water. The solution is can be heated to about 145° F. and is maintained throughout the reaction. […]

CN(CC(=O)O)C(=N)N.O=S(=O)([O-])[O-].[Na+].[Na+] [creatine sodium sulfate]
pH of the spray dried powder: approximately 1.7

CN(CC(=O)O)C(=N)N.O=S(=O)([O-])[O-].[K+].[K+] [creatine potassium sulfate]
pH of the spray dried powder: approximately 1.7
